Test results taken from US20250276959A1, “SOLID STATE FORMS OF ZAVEGEPANT HYDROCHLORIDE AND PROCESS FOR PREPARATION THEREOF” (TEVA CZECH INDUSTRIES S.R.O., priority 2022, published 2025).

Assay: Storage stability of the solid state form
Assay type: physicochemical
Procedure: Crystalline Form C2 of Zavegepant hydrochloride may have one or more advantageous properties, as discussed herein above. For example, Form C2 is stable for a period of at least for 6 months at temperature of about 25° C. and a relative humidity (“RH”) of 60% RH, and at a temperature of about 40° C. and 75% RH.

- period for which the form is stable (temperature of about 25° C., 60% RH): ≥ 6 months
- period for which the form is stable (temperature of about 40° C., 75% RH): ≥ 6 months
Compound: Cc1cc(C[C@@H](NC(=O)N2CCC(c3cc4ccccc4[nH]c3=O)CC2)C(=O)N2CCN(C3CCN(C)CC3)CC2)cc2cn[nH]c12 [Form C2, (R)N-(3-(7-methyl-1H-indazol-5-yl)-1-(4-(1-methylpiperidin-4-yl)piperazin-1-yl)-1-oxopropan-2-yl)-4-(2-oxo-1,2-dihydroquinolin-3-yl)piperidine-1-carboxamide]
